Experimental findings from EP2706123A1, “In vitro method for determining genotoxic and non-genotoxic carcinogenicity of a compound” (Rijksinstituut Voor Volksgezondheid En Milieu, priority 2012, dated 2014) are described below.

The structures appear in SMILES notation. “And” between values parts separate entries of the source, which are not always exact repeats. Equal values may be shown once.

The first series has as its system Nup62. The series is described as follows: Expression level of marker gene Nup62 in liver of mice exposed for 7 days (microarray). The following applies: mouse liver, 7 days exposure, average of 3 - 4 independent repeat experiments; negative value = underexpression (negative inverse of Ratio); dose and route per compound in Table 8.
As for `CC(=O)Nc1ccc2c(c1)Cc1ccccc1-2` [GTXC_2-AAF, 2-Acetylaminofluorene], the “Average Fold Changes of the expression level of marker gene Nup62” value (“Average Fold Changes … of marker gene Nup62” for short) is given as -1,51.
The same measure, in the same setting: next, `c1ccc2c(c1)cc1ccc3cccc4ccc2c1c34` [GTXC_BaP, Benzo(a)pyrene]: -1,40.
With `N.N.[Cl][Pt][Cl]` [GTXC_CPPD, Cisplatin], the “Average Fold Changes … of marker gene Nup62” value is -1,39.
As for `CC(C)(c1ccc(O)cc1)c1ccc(O)cc1` [NC_BPA, Bisphenol A], the “Average Fold Changes … of marker gene Nup62” value is given as -1,04.

The same series, now with this note: mouse liver, 7 days exposure, one animal per table line (suffix of Exposure label = animal number); negative value = underexpression.
Consider `CC(=O)Nc1ccc2c(c1)Cc1ccccc1-2` [GTXC_2-AAF, 2-Acetylaminofluorene], for which the “Fold Change of expression of Nup62 in individual animals” value is -1,55724 and -1,69925 and -1,3329 and -1,46527.
Regarding `c1ccc2c(c1)cc1ccc3cccc4ccc2c1c34` [GTXC_BaP, Benzo(a)pyrene], the “Fold Change of expression of Nup62 in individual animals” value was -1,46302 and -1,51176 and -1,24257 and -1,41015.
On the same count and under the same terms, for `N.N.[Cl][Pt][Cl]` [GTXC_CPPD, Cisplatin] the value was -1,40437 and -1,37437 and -1,38035.
Still for that read-out and setting: for `CC(C)(c1ccc(O)cc1)c1ccc(O)cc1` [NC_BPA, Bisphenol A] the value was -1,01361 and -1,00973 and 1,14385 and -1,3266.

In a further series the test system is Anks4b. The series is described as follows: Expression level of marker gene Anks4b in liver of mice exposed for 7 days (microarray). The following applies: mouse liver, 7 days exposure, average of 3 - 4 independent repeat experiments; negative value = underexpression (negative inverse of Ratio); dose and route per compound in Table 8.
Turning to `CC(=O)Nc1ccc2c(c1)Cc1ccccc1-2` [GTXC_2-AAF, 2-Acetylaminofluorene], the “Average Fold Changes of the expression level of marker gene Anks4b” value was 1,87.
Turning to `c1ccc2c(c1)cc1ccc3cccc4ccc2c1c34` [GTXC_BaP, Benzo(a)pyrene], the “Average Fold Changes of the expression level of marker gene Anks4b” value is 1,58.
Still for that read-out and setting: next, `N.N.[Cl][Pt][Cl]` [GTXC_CPPD, Cisplatin]: 1,62; `CC(C)(c1ccc(O)cc1)c1ccc(O)cc1` [NC_BPA, Bisphenol A]: -1,02.

The series is the same for the next values; noted with them: mouse liver, 7 days exposure, one animal per table line (suffix of Exposure label = animal number); negative value = underexpression.
Regarding `CC(=O)Nc1ccc2c(c1)Cc1ccccc1-2` [GTXC_2-AAF, 2-Acetylaminofluorene], the “Fold Change of expression of Anks4b in individual animals” value (“Fold Change of expression of Anks4b” below) was 1,655817 and 2,059207 and 2,270806 and 1,587469.
`c1ccc2c(c1)cc1ccc3cccc4ccc2c1c34` [GTXC_BaP, Benzo(a)pyrene]: the “Fold Change of expression of Anks4b” value was 2,091694 and 1,512848 and 1,249576 and 1,590135.
As for `N.N.[Cl][Pt][Cl]` [GTXC_CPPD, Cisplatin], the “Fold Change of expression of Anks4b” value was 1,894611 and 1,416897 and 1,570269.
As to `CC(C)(c1ccc(O)cc1)c1ccc(O)cc1` [NC_BPA, Bisphenol A], the “Fold Change of expression of Anks4b” value was -1,16229 and 1,285365 and -1,14224 and -1,06695.

The next series has as its system Zbtb16. The series is described as follows: Expression level of marker gene Zbtb16 in liver of mice exposed for 7 days (microarray). The following applies: mouse liver, 7 days exposure, average of 3 - 4 independent repeat experiments; negative value = underexpression (negative inverse of Ratio); dose and route per compound in Table 8.
`CC(=O)Nc1ccc2c(c1)Cc1ccccc1-2` [GTXC_2-AAF, 2-Acetylaminofluorene]: the “Average Fold Changes of the expression level of marker gene Zbtb16” value (“Average Fold Changes … of marker gene Zbtb16” below) is -2,94.
`c1ccc2c(c1)cc1ccc3cccc4ccc2c1c34` [GTXC_BaP, Benzo(a)pyrene]: the “Average Fold Changes … of marker gene Zbtb16” value is -2,08.
In the case of `N.N.[Cl][Pt][Cl]` [GTXC_CPPD, Cisplatin], the “Average Fold Changes … of marker gene Zbtb16” value is listed as -3,46.
In the case of `CC(C)(c1ccc(O)cc1)c1ccc(O)cc1` [NC_BPA, Bisphenol A], the “Average Fold Changes … of marker gene Zbtb16” value is reported as -1,23.

The series is the same for the next values; noted with them: mouse liver, 7 days exposure, one animal per table line (suffix of Exposure label = animal number); negative value = underexpression.
Consider `CC(=O)Nc1ccc2c(c1)Cc1ccccc1-2` [GTXC_2-AAF, 2-Acetylaminofluorene], for which the “Fold Change of expression of Zbtb16 in individual animals” value (“Fold Change of expression of Zbtb16” for short) was -3,61818 and -2,77847 and -3,11926 and -2,3778.
With `c1ccc2c(c1)cc1ccc3cccc4ccc2c1c34` [GTXC_BaP, Benzo(a)pyrene], the “Fold Change of expression of Zbtb16” value was -2,2075 and -2,73557 and -2,65608 and -1,1713.
Take `N.N.[Cl][Pt][Cl]` [GTXC_CPPD, Cisplatin]: the “Fold Change of expression of Zbtb16” value was -4,28606 and -2,61037 and -3,7119.
Consider `CC(C)(c1ccc(O)cc1)c1ccc(O)cc1` [NC_BPA, Bisphenol A], for which the “Fold Change of expression of Zbtb16” value was 1,114306 and -1,6599 and 1,05274 and -1,63459.

The test system of another series is Cyp17a1. The series is described as follows: Expression level of marker gene Cyp17a1 in liver of mice exposed for 7 days (microarray). The following applies: mouse liver, 7 days exposure, average of 3 - 4 independent repeat experiments; negative value = underexpression (negative inverse of Ratio); dose and route per compound in Table 8.
Take `CC(=O)Nc1ccc2c(c1)Cc1ccccc1-2` [GTXC_2-AAF, 2-Acetylaminofluorene]: the “Average Fold Changes of the expression level of marker gene Cyp17a1” value is on record as -1,62.
On the same count and under the same terms, for `c1ccc2c(c1)cc1ccc3cccc4ccc2c1c34` [GTXC_BaP, Benzo(a)pyrene] the value was 1,59; for `N.N.[Cl][Pt][Cl]` [GTXC_CPPD, Cisplatin], -2,48; for `CC(C)(c1ccc(O)cc1)c1ccc(O)cc1` [NC_BPA, Bisphenol A], -2,45.

The series is the same for the next values; noted with them: mouse liver, 7 days exposure, one animal per table line (suffix of Exposure label = animal number); negative value = underexpression.
Take `CC(=O)Nc1ccc2c(c1)Cc1ccccc1-2` [GTXC_2-AAF, 2-Acetylaminofluorene]: the “Fold Change of expression of Cyp17a1 in individual animals” value (“Fold Change of expression of Cyp17a1” for short) was 1,364397 and -2,15504 and -2,61584 and -1,66057.
For the compound `c1ccc2c(c1)cc1ccc3cccc4ccc2c1c34` [GTXC_BaP, Benzo(a)pyrene], the “Fold Change of expression of Cyp17a1” value is 1,069143 and -1,57076 and 2,426957 and 3,849942.
As to `N.N.[Cl][Pt][Cl]` [GTXC_CPPD, Cisplatin], the “Fold Change of expression of Cyp17a1” value is -4,49668 and -2,09626 and -1,61055.
With `CC(C)(c1ccc(O)cc1)c1ccc(O)cc1` [NC_BPA, Bisphenol A], the “Fold Change of expression of Cyp17a1” value was -4,75677 and -1,01075 and -3,4994 and -2,12839.

Another series concerns LOC75771. The series is described as follows: Expression level of marker gene LOC75771 in liver of mice exposed for 7 days (microarray). The following applies: mouse liver, 7 days exposure, average of 3 - 4 independent repeat experiments; negative value = underexpression (negative inverse of Ratio); dose and route per compound in Table 8.
On to `CC(=O)Nc1ccc2c(c1)Cc1ccccc1-2` [GTXC_2-AAF, 2-Acetylaminofluorene], for which the “Average Fold Changes of the expression level of marker gene LOC75771” value (from here on “Average Fold Changes … of marker gene LOC75771”) is on record as 1,64.
On to `c1ccc2c(c1)cc1ccc3cccc4ccc2c1c34` [GTXC_BaP, Benzo(a)pyrene], for which the “Average Fold Changes … of marker gene LOC75771” value is listed as 1,94.
On to `N.N.[Cl][Pt][Cl]` [GTXC_CPPD, Cisplatin], for which the “Average Fold Changes … of marker gene LOC75771” value was 1,98.
On the same count and under the same terms, next, `CC(C)(c1ccc(O)cc1)c1ccc(O)cc1` [NC_BPA, Bisphenol A]: 1,14.

The same series, now with this note: mouse liver, 7 days exposure, one animal per table line (suffix of Exposure label = animal number); negative value = underexpression.
`CC(=O)Nc1ccc2c(c1)Cc1ccccc1-2` [GTXC_2-AAF, 2-Acetylaminofluorene]: the “Fold Change of expression of LOC75771 in individual animals” value (shortened to “Fold Change of expression of LOC75771”) is 1,705921 and 2,011494 and 1,050507 and 1,984839.
With `c1ccc2c(c1)cc1ccc3cccc4ccc2c1c34` [GTXC_BaP, Benzo(a)pyrene], the “Fold Change of expression of LOC75771” value was 2,511058 and 2,153342 and 1,654892 and 1,573528.
As for `N.N.[Cl][Pt][Cl]` [GTXC_CPPD, Cisplatin], the “Fold Change of expression of LOC75771” value was 2,205733 and 1,720149 and 2,049812.
Turning to `CC(C)(c1ccc(O)cc1)c1ccc(O)cc1` [NC_BPA, Bisphenol A], the “Fold Change of expression of LOC75771” value is 1,027932 and 1,306211 and -1,1049 and 1,370273.

In the next series the test system is 9030619P08Rik. As to the kind of experiment: Expression level of marker gene 9030619P08Rik in liver of mice exposed for 7 days (microarray). The following applies: mouse liver, 7 days exposure, average of 3 - 4 independent repeat experiments; negative value = underexpression (negative inverse of Ratio); dose and route per compound in Table 8.
Turning to `CC(=O)Nc1ccc2c(c1)Cc1ccccc1-2` [GTXC_2-AAF, 2-Acetylaminofluorene], the “Average Fold Changes of the expression level of marker gene 9030619P08Rik” value is listed as 1,38.
On to `c1ccc2c(c1)cc1ccc3cccc4ccc2c1c34` [GTXC_BaP, Benzo(a)pyrene], for which the “Average Fold Changes of the expression level of marker gene 9030619P08Rik” value is 3,08.
In the case of `N.N.[Cl][Pt][Cl]` [GTXC_CPPD, Cisplatin], the “Average Fold Changes of the expression level of marker gene 9030619P08Rik” value is listed as 1,70.
Turning to `CC(C)(c1ccc(O)cc1)c1ccc(O)cc1` [NC_BPA, Bisphenol A], the “Average Fold Changes of the expression level of marker gene 9030619P08Rik” value is recorded as 1,29.

The same series, now with this note: mouse liver, 7 days exposure, one animal per table line (suffix of Exposure label = animal number); negative value = underexpression.
On to `CC(=O)Nc1ccc2c(c1)Cc1ccccc1-2` [GTXC_2-AAF, 2-Acetylaminofluorene], for which the “Fold Change of expression of 9030619P08Rik in individual animals” value was 1,187438 and 1,340597 and 1,335409 and 1,684509.
Take `c1ccc2c(c1)cc1ccc3cccc4ccc2c1c34` [GTXC_BaP, Benzo(a)pyrene]: the “Fold Change of expression of 9030619P08Rik in individual animals” value is 3,463285 and 3,508919 and 1,242329 and 5,940256.
As for `N.N.[Cl][Pt][Cl]` [GTXC_CPPD, Cisplatin], the “Fold Change of expression of 9030619P08Rik in individual animals” value was 1,882632 and 3,19679 and -1,23124.
Take `CC(C)(c1ccc(O)cc1)c1ccc(O)cc1` [NC_BPA, Bisphenol A]: the “Fold Change of expression of 9030619P08Rik in individual animals” value is -1,23514 and 2,605592 and 1,167664 and 1,121763.
